Tests used:
[1] = tested on: prostate specific antigen (PSA); assay: Prostate Specific Antigen Level Assay (Chiron ACS: Centaur PSA2, serum of treated subjects); assay type: in vivo, human; details: hormone refractory prostate cancer subjects; 2.5 mg or 10 mg ABT-627 vs placebo; AUC in FIG. 2
Description: (§1) Studies were performed on male subjects with asymptomatic hormone refractory prostate cancer with rising PSA levels and on male subjects with symptomatic hormone refractory prostate cancer with rising PSA levels and pain. Subjects in the phase II studies had castrate levels of testosterone, either due to pharmacologic intervention, via leuprolide (Lupron®) or goserelin (Zoladex®), or via surgical castration. Subjects received ABT-627 or placebo. The following tests were conducted:
(§2) A number of recognized or putative biochemical markers of disease progression have been used to monitor treatment of individuals with prostate cancer. Among these markers are serum Prostate Specific Antigen (PSA), serum acid Phosphatase, Interleukin-6, and Chromagranin-A. As currently accepted, favorable treatment is marked by a decrease or slower rate of increase for PSA, acid phosphatase, and Interleukin-6, while a favorable response is marked by an increase in Chromagranin-A. […]
The effect of ABT-627 administeration on prostate specific antigen (PSA) levels in human subject serum samples was determined using the procedure described in the Chiron Diagnostics ACS: Centaur PSA2 Assay. […]
Briefly, a subject population was treated with a placebo or 2.5 mg or 10 mg of ABT-627. […] A direct relationship exists between the amount of PSA present in the patient sample and the RLU's (relative light units) detected.

Acid Phosphatase (ACP) = assay: Acid Phosphatase Levels (Sigma Diagnostics ACP Procedure No. 435, serum of treated subjects); assay type: in vivo, human; details: hormone refractory prostate cancer subjects, ABT-627 vs placebo, AUC in FIG. 7 (10 mg)
Description: as §1
A number of recognized or putative biochemical markers of disease progression have been used to monitor treatment of individuals with prostate cancer. […]
The effect of ABT-627 administeration on Acid Phosphatase levels in human subject serum samples was determined at Quintiles Laboratories using the chemical test described in Sigma Diagnostics Acid Phosphatase (ACP) Procedure No. 435. […] The alpha-naphthol immediately reacts with fast red TR salt to produce a yellow chromophore with an absorbance maximum at 405 nm. The rate of increase in absorbance at 405 nm is directly proportional to ACP activity in the sample. ACP activity was determined in the presence and absence of L-tartrate, the difference being attributed to prostatic acid phosphatase activity. […]

Chromagranin-A = Chromagranin-A Levels (two site chemiluminescence assay, serum of treated subjects); assay type: in vivo, human; details: hormone refractory prostate cancer subjects, 2.5 mg/day of ABT-627, AUC in FIG. 8
Description: as §1, §2
The effect of ABT-627 adminstration on Chromagranin-A levels in human serum samples was determined by proprietary assay conducted at the Nichols Institute. […] The bound, acridinium-labeled material produces light that is detected in a luminometer after addition of triggering agents. […]

Interleukin-6 = Interleukin-6 Levels (sandwich immunoassay, serum of treated subjects); assay type: in vivo, human; details: hormone refractory prostate cancer subjects, 2.5 mg or 10 mg ABT-627 vs placebo, AUC FIG. 1
Description: as §1, §2
The effect of ABT-627 adminstration on Interleukin-6 levels in human serum samples was determined at Quintiles Laboratories using a sandwich immunoassay. […] After incubation, the wells were washed, and the bound enzymatic activity was measured using a chromogenic substrate. […]

[2] = tested on: male subjects with hormone refractory prostate cancer; assay: Bone scan (Tc-99m phosphonate, bone scan index); assay type: in vivo, human; details: 10 mg ABT-627 versus placebo, FIG. 6
Description: as §1
Bone scans were performed with an NDA approved, Tc-99m phosphonate type radiopharmaceutical. […] Each site was evaluated against a confidence score of 1 to 5, where 1 is negative, 2 is probably negative, 3 is equivocal, 4 is probably positive, and 5 is definitely positive. […] In addition, in a blinded study, a reference nuclear medicine physician interpreted the bone scans quantitatively as follows: the percent of involved bone was estimated for each individual bone, and the individual bone involvement was summed to calculate a global percent bone scan index (BSI). […]
Bone scans were conducted on each subject on day one of the study, and on the final day of the study, and the changes from baseline in bone scan index scores were analysed by mean change and mean percent change, adjusting for baseline characteristics as co-variates using SAS version XXX software.

[3] = tested on: male subjects with symptomatic hormone refractory prostate cancer with rising PSA levels and pain; assay: Visual Analog Scale (VAS) pain assessment; assay type: in vivo, human; details: 2.5 mg or 10 mg ABT-627 vs placebo, independent of the effects of morphine, AUC in FIG. 3
Description: as §1, with “conducted: […]” for “conducted:”
During the course of the study, pain asessments were done daily, at bedtime, by the subject. […] The log also contained a table on which was recorded all daily pain medication consumed by the patient. […] Clinical personnel who received the logs measured the score by measuring the distance (in mm) from the “no pain” end mark to the point where the subject's line crossed the VAS line. […]
The weekly VAS scores were calculated excluding the lowest and highest score for each week and averaging the remaining five scores. […]
Weekly VAS scores are examined using a longitudinal analysis method to explore trends over time. The duration of the response, defined as the time from baseline to the last weekly assessment for which the responder definition was satisfied, was analyzed using the Kaplan-Meier methodology and logrank test.

[4] = tested on: bone alkaline phosphatase (BAP); assay: Bone Alkaline Phosphatase levels (Alkphase-B assay); assay type: in vivo, human; details: hormone refractory prostate cancer subjects; 10 mg ABT-627 vs placebo; AUC in FIG. 5
Description: as §1
(§3) Markers of osteoblastic activity were assessed using urine samples. Bone markers include bone alkaline phosphatase (BAP), deoxypridinoline, and N-telopeptide of Type I collagen. Blood samples were collected prior to dosing on Day 1, Day 42, Day 84, Day 168, and every 28 days after Day 168, with a final collection on the last day of the study.
Bone Alkaline Phosphatase levels were determined using the bone-specific Alkphase-B® assay published by Metra Biosystems (Mountain View, Calif.).

[5] = tested on: Crosslinked N-telopeptide (ICTP) of type I collagen; assay: Crosslinked N-Telopeptide Levels (DiaSorin ICTP radioimmunoassay); assay type: in vivo; details: hormone refractory prostate cancer subjects; 10 mg ABT-627 vs placebo; human serum; AUC in FIG. 4
Description: as §1, §3
Cross-linked N-telopeptide levels were determined using the DiaSorin (Stillwater, Minn.) assay for the quantitative determination of carboxyterminal cross-linked telopeptide of type I collagen (ICTP) in human serum by equilibrium radioimmunoassay (RIA). Briefly, samples were incubated with the ^125I ICTP tracer and ICTP primary antibody for 2 hours at 37° C. Following the 2 hour incubation, a pre-precipitated second antibody complex was added to separate the bound from free tracer. […] The bound tracer in the pellet was counted with a gamma counter. […]

## CCCCN(CCCC)C(=O)CN1C[C@H](c2ccc3c(c2)OCO3)[C@@H](C(=O)O)[C@@H]1c1ccc(OC)cc1 [ABT-627]
[1]
  rate of increase of PSA in the serum samples: decreases
Acid Phosphatase (ACP)
  average change from baseline for acid phosphatase: decreased
  rate of increase for acid phosphatase: decreased
Chromagranin-A
  average change from baseline for Chromagranin-A: higher
Interleukin-6
  average change in baseline for Interleukin-6: lower
[2]
  proportion of total skeletal involvement (bone scan): decrease in the proportion of total skeketal involvement
[3]
  VAS scores (pain): decrease in pain
[4]
  BAP levels: decreased
[5]
  Crosslinked N-telopeptide levels: decreased

Reference: patent US20060035867A1, “Methods of treating cancer and the pain associated therewith using endothelin antagonists” (priority 2000, published 2006)
